According to US20120301468A1, “ANTI-MN ANTIBODIES AND METHODS OF USING SAME” (BAYER HEALTHCARE LLC, priority 2005, published 2012):
Each block holds one compound with its values, some of them ahead of it. Non-standard residues stand in square brackets, D forms with d. Residues, ends and D or L forms follow the SMILES beside them. *: point of attachment. Dolaproine = CO[C@@H]([C@@H]1CCCN1)[C@@H](C)C(=O)O; Dil = CC[C@H](C)[C@H](NC)[C@@H](CC(=O)O)OC; X1 = C[C@@H](N*)[C@@H](O)c1ccccc1; NMeV = CN[C@H](C(=O)O)C(C)C

Key:
[1] = test system: HCT-15 multi-drug resistant (P-gp) CRC xenograft; assay: HCT-15 multi-drug resistant xenograft model; type: in vivo, NCr nu/nu mice; details: HCT-15 MDR model
Experimental: To examine the effect of 3ee9/MMAE in a multi-drug resistance model, female NCr nu/nu mice were implanted subcutaneously (s.c.) with 5×10^6 HCT-15 cells. HCT-15 is a multi-drug resistant (MDR) line that over-expresses P-glycoprotein (P-gp). […] 3ee9/MMAE, Taxol, and Gemcitabine were administered when mice had established tumors with mean weight of ˜150 mg. Gemcitabine, a pyrimidine analog that is not a P-gp substrate was used as a positive control.

[2] = test system: HT-29 human CRC xenograft; assay: HT-29 subcutaneous xenograft model; type: in vivo, athymic NCr (nu/nu) mice; details: HT-29; for % Inhibition (1-T/D)*100 (Day 18) / Percent Regressions: Q4D × 3
Experimental: When tumors reached an average size of ˜120 mg (5 days), treatment was initiated. […] In addition, MMAE was assessed as a free drug at a dose of 0.1, 0.2 and 1 mg/kg. The 0.1 and 0.2 mg/Kg doses of MMAE represent equivalent amounts of this drug to those present on 5 and 10 mg/Kg 3ee9/MMAE respectively.
Anti-tumor effect of 3ee9/MMAE was also assessed in varying schedules, i.e., once a week dosing for total of two doses (Q7Dx2, FIG. 20) and a single dose at the time of staging (Q1Dx1, FIG. 21). In both schedules, 3ee9/MMAE was dosed at 0.625, 1.25, 2.5, 5 and 10 mg/kg.

Colo-205 CRC xenograft = assay: Colo-205 subcutaneous xenograft model; details: Colo-205
Text: The in vivo anti-tumor effect of 3ee9/MMAE was examined in 6 different human xenograft tumor models. These models were established through subcutaneous implantation of human tumor cells into female athymic NCr (nu/nu) mice (Taconic, N.Y.). The human tumor xenograft models evaluated included the MaTu human mammary carcinoma model, the HT-29 and Colo-205 human colo-rectal carcinoma (CRC) models, PC3MM2 prostate carcinoma model, the HCT-15 multi-drug resistant (P-gp) CRC model, and the MiaPaCa2 human pancreatic model. PBS was used as a vehicle, and dosing solutions were prepared fresh daily. The dosing volume was 0.1 mL/10 g (10 mL/kg).
The length and width of each tumor were measured using an electronic caliper 2-3 times per week, and tumor weights (mg) were calculated based on the formula of [length (mm)×width (mm)^2]/2. All data, including daily observations, obtained throughout the course of the study were documented in Anti-tumor Data Acquisition System (ADAS). […] Tumor growth inhibition (TGI) was calculated as (1-T/C)×100, where T=final tumor weights from a treated group after the last dose, and C=final tumor weights from the control group after the last dose. In addition, anti-tumor efficacy was measured as the incidence of responses (or responders or regressions) defined as tumors with ≦50% of their initial size. A minimum duration of 7 days is required for a response to be considered durable.
The anti-tumor activity of 3ee9/MMAE was next evaluated against human prostate (PC-3 mm2) and CRC (Colo-205) tumor xenografts. Female NCr nu/nu mice were implanted subcutaneously (s.c.) either with 5×10^6 PC3 mm2 or Colo-205 cells. Treatment was initiated when tumors were of an average size of approximately 125-150 mg. The general health of mice was monitored and recorded daily. Tumor dimensions and body weights were recorded twice a week starting with the first day of treatment.
In the PC3 mm2 and Colo-205 studies, 3ee9/MMAE was administered intravenously (i.v.) once every 4th day for a total of 3 injections (Q4Dx3) at doses of 1, 3, 10 and 30 mg/kg and 1.25, 2.5, 5 and 10 mg/kg, respectively.
The feasibility of using 3ee9/MMAE in conjunction with other cancer chemotherapeutic agents was investigated. Xeloda® is used as first line treatment of patients with metastatic colorectal carcinoma. The activity and tolerability of combined therapy using 3ee9/MMAE and Xeloda® was evaluated. 3ee9/MMAE was administered i.v. on a Q4Dx3 schedule and at dose levels of 1.25, 2.5 and 10 mg/kg. Xeloda® was administered orally once daily for 9 days at dose levels of 250 and 500 mg/kg.

MN [3] = target: T1, MN (Homo sapiens, UniProt Q16790); assay: Surface plasmon resonance (BIAcore) binding to MN protein; set-up: The MN protein represents the entire extra-cellular domain of the protein with a C-terminal histag for purification; His tag (C); made in house; host or cells: HKB-11 (mammalian cell line); details: read-out: kD for purified MN protein
Experimental: The binding interactions between MN protein and the antibodies of this invention were analyzed using surface plasmon resonance technology on a BIAcore 3000 instrument (BIAcore, Uppsala, Sweden). For the binding of full-length IgGs (1e4, 1aa1, and 3ee9), goat anti-human IgG Fc was covalently coupled to the CM5 biosensor chip at high density using a standard amine coupling kit (BIAcore, Uppsala, Sweden). A capture assay was then used to bind these IgG to the anti-human IgG Fc-immobilized surface, aiming for a 300 response unit BIAcore signal. […] After ligand binding, the flow rate was then increased to 25 μl/min and various concentrations of MN analyte (e.g., range of 50 nM to 1 nM) were flowed over the surface for 10 minutes such that the association phase could be monitored. […] The binding of Fabs to MN was similarly determined except that an anti-human-Fab IgG was immobilized onto the chip and used to capture the Fabs prior to the assessment of MN binding.
Binding interactions between HKB11-expressed human MN protein and human full-length anti-MN MAbs were analyzed using surface plasmon resonance technology on a BIAcore 3000 instrument (BIAcore, Uppsala, Sweden). […] After ligand binding, flow rate was increased to 25 ul/min and MN analyte (50 nM to 1 nM) was flowed over the surface for 10 min such that the association phase could be monitored. […]

MN [4] = target: T1, MN; assay: Immunoprecipitation of biotinylated cell surface proteins; type: binding; set-up: incubated with cell lysates of MN+ (Pc3 mm2) and MN− (DLD-1) cell lines that had been selectively labeled with biotin; endogenous in cells; host or cells: PC-3 mm2 (MN+); DLD-1 as the MN- control; details: biotin-labeled lysates of MN+ (Pc3 mm2) and MN− (DLD-1) cell lines
Experimental: To further explore specificity, various candidate antibodies including the antibody portion of 3ee9/MMAE (3ee9) and the reference antibody G250 were incubated with cell lysates of MN+ (Pc3 mm2) and MN− (DLD-1) cell lines that had been selectively labeled with biotin. Complexes between the antibodies and cellular proteins were immuno-precipitated and the co-precipitated antigens visualized using immunoblots developed with enzyme-linked streptavidin.

Compound: Nc1ccn([C@@H]2O[C@H](CO)[C@@H](O)C2(F)F)c(=O)n1 [Gemcitabine]
anti-tumor activity ([1]; 120 mg/kg, i.p., QDx10): highly active

Compound: CC[C@H](C)[C@@H]([C@@H](CC(=O)N1CCC[C@H]1[C@H](OC)[C@@H](C)C(=O)N[C@H](C)[C@@H](O)c1ccccc1)OC)N(C)C(=O)[C@@H](NC(=O)[C@@H](NC)C(C)C)C(C)C [MMAE, Monomethylauristatin E, reference compound] (H-[NMeV]V[Dil][Dolaproine]-X1)
% Inhibition (1-T/D)*100 (Day 18) ([2]; 0.1 mg/kg): 27%
Percent Regressions ([2]; 0.1 mg/kg): 0%
% Inhibition (1-T/D)*100 (Day 18) ([2]; 0.2 mg/kg): 60%
Percent Regressions ([2]; 0.2 mg/kg): 0%
% Inhibition (1-T/D)*100 (Day 18) ([2]; 1 mg/kg): Toxic
tumor responses ([2]; free drug): did not induce any tumor responses
effect in inhibiting growth ([2]; free drug 0.1 mg/kg): no significant effect
TGI ([2]; free drug 0.2 mg/kg): 60%
lethality ([2]; free drug 1 mg/kg): 50%
tolerability ([2]; free drug 1 mg/kg): considered toxic
tolerability ([2]; free drug 0.1 and 0.2 mg/kg): well tolerated with non-significant, minimal weight loss

Compound: CC(=O)O[C@H]1C(=O)[C@@]2(C)[C@H]([C@H](OC(=O)c3ccccc3)[C@]3(O)C[C@H](OC(=O)[C@H](O)[C@@H](NC(=O)c4ccccc4)c4ccccc4)C(C)=C1C3(C)C)[C@]1(OC(C)=O)CO[C@@H]1C[C@@H]2O [Taxol®]
anti-tumor effect [1]: failed to produce any significant anti-tumor effect

Compound: CCCCCOC(=O)Nc1nc(=O)n([C@@H]2O[C@H](C)[C@@H](O)[C@H]2O)cc1F [Xeloda, reference compound]
% Inhibition (T/C) (d 17) (Colo-205 CRC xenograft; 250 mg/kg/inj Q1D × 9 PO): 78%
% Regressions (Colo-205 CRC xenograft; 250 mg/kg/inj Q1D × 9 PO): 0%
% Weight Loss (d 17) (Colo-205 CRC xenograft; 250 mg/kg/inj Q1D × 9 PO): −0.5%
% Inhibition (T/C) (d 17) (Colo-205 CRC xenograft; 500 mg/kg/inj Q1D × 9 PO): 86.1%
% Regressions (Colo-205 CRC xenograft; 500 mg/kg/inj Q1D × 9 PO): 0%
% Weight Loss (d 17) (Colo-205 CRC xenograft; 500 mg/kg/inj Q1D × 9 PO): −5.6%
TGI (Colo-205 CRC xenograft; alone 250 mg/kg orally once daily for 9 days): 78%
TGI (Colo-205 CRC xenograft; alone 500 mg/kg orally once daily for 9 days): 86%
animals showing regressions (Colo-205 CRC xenograft; both dose groups (250 and 500 mg/kg)): zero

Kd (MN [3]): 5.3 nM
Compound: G250: MN antibody G250, a humanized IgG1 antibody, (Wilex), used as a reference [reference compound]
co-immunoprecipitated proteins (specificity) (MN [4]): selectively bound and co-immunoprecipitated with a single band of the same size as MN
